Measurements reported in the supplement of paper PMC10307832.

Experiments:
Experiment in all cases: relative viability (nuclei count vs DMSO), 5 days (fraction); higher = more cells survive
[1] = compound: O=C(C[C@H]1NCCC[C@@H]1O)Cn1cnc2cc(Br)c(Cl)cc2c1=O (racemic) [Halofuginone] + NC(=O)Nc1cc(-c2cccc(F)c2)sc1C(=O)N[C@H]1CCCNC1 [AZD7762] (partner 0.2 µM)
Summary of the method: (§1)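 One day after seeding in 1536-well plates, lung cancer cell lines were dosed by pin tool. Dosing was either single-drug or a fixed anchor-drug dose plus five library-drug doses (not always all listed) in √10 steps. After 5 days, nuclei were stained in one fix-and-stain step and counted on 4× images, and relative viability is the nuclei count of treated wells over that of vehicle wells, given as the median of duplicate plates.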

[2] = compound: O=C(C[C@H]1NCCC[C@@H]1O)Cn1cnc2cc(Br)c(Cl)cc2c1=O (racemic) [Halofuginone] + COc1cc2c(Oc3ccc(NC(=O)C4(C(=O)Nc5ccc(F)cc5)CC4)cc3F)ccnc2cc1OCCCN1CCOCC1 [Foretinib] (partner 0.25 µM)
Summary of the method: as §1

[3] = compound: O=C(C[C@H]1NCCC[C@@H]1O)Cn1cnc2cc(Br)c(Cl)cc2c1=O (racemic) [Halofuginone] + O=C(CCCCCCC(=O)Nc1ccccc1)NO [Vorinostat] (partner 1 µM)
Summary of the method: as §1

[4] = compound: O=C(C[C@H]1NCCC[C@@H]1O)Cn1cnc2cc(Br)c(Cl)cc2c1=O (racemic) [Halofuginone] + CS(=O)(=O)CCNCc1ccc(-c2ccc3ncnc(Nc4ccc(OCc5cccc(F)c5)c(Cl)c4)c3c2)o1 [Lapatinib] (partner 2 µM)
Summary of the method: as §1

201T
relative viability ([1]; first compound 0.001 µM): 0.634 | relative viability ([1]; first compound 0.003162 µM): 0.634 | relative viability ([1]; first compound 0.01 µM): 0.589 | relative viability ([1]; first compound 0.03162 µM): 0.711 | relative viability ([1]; first compound 0.1 µM): 0.8 | relative viability ([2]; first compound 0.001 µM): 1.09 | relative viability ([2]; first compound 0.003162 µM): 1.09 | relative viability ([2]; first compound 0.01 µM): 0.931 | relative viability ([2]; first compound 0.03162 µM): 0.558 | relative viability ([2]; first compound 0.1 µM): 0.193 | relative viability ([3]; first compound 0.001 µM): 1.01 | relative viability ([3]; first compound 0.003162 µM): 0.971 | relative viability ([3]; first compound 0.01 µM): 0.964 | relative viability ([3]; first compound 0.03162 µM): 0.909 | relative viability ([3]; first compound 0.1 µM): 0.776 | relative viability ([4]; first compound 0.001 µM): 1.02 | relative viability ([4]; first compound 0.003162 µM): 0.97 | relative viability ([4]; first compound 0.01 µM): 1.05 | relative viability ([4]; first compound 0.03162 µM): 1.04 | relative viability ([4]; first compound 0.1 µM): 1.04

A549
relative viability ([2]; first compound 0.001 µM): 1.06 | relative viability ([2]; first compound 0.003162 µM): 0.921 | relative viability ([2]; first compound 0.01 µM): 0.925 | relative viability ([2]; first compound 0.03162 µM): 0.507 | relative viability ([2]; first compound 0.1 µM): 0.112 | relative viability ([4]; first compound 0.001 µM): 0.993 | relative viability ([4]; first compound 0.003162 µM): 0.973 | relative viability ([4]; first compound 0.01 µM): 0.928 | relative viability ([4]; first compound 0.03162 µM): 0.603 | relative viability ([4]; first compound 0.1 µM): 0.203

A-427
relative viability ([1]; first compound 0.001 µM): 0.729 | relative viability ([1]; first compound 0.003162 µM): 0.806 | relative viability ([1]; first compound 0.01 µM): 0.805 | relative viability ([1]; first compound 0.03162 µM): 0.77 | relative viability ([1]; first compound 0.1 µM): 0.497 | relative viability ([2]; first compound 0.001 µM): 0.979 | relative viability ([2]; first compound 0.003162 µM): 1.03 | relative viability ([2]; first compound 0.01 µM): 1.02 | relative viability ([2]; first compound 0.03162 µM): 1.06 | relative viability ([2]; first compound 0.1 µM): 0.915 | relative viability ([3]; first compound 0.001 µM): 0.89 | relative viability ([3]; first compound 0.003162 µM): 0.891 | relative viability ([3]; first compound 0.01 µM): 0.828 | relative viability ([3]; first compound 0.03162 µM): 0.827 | relative viability ([3]; first compound 0.1 µM): 0.807 | relative viability ([4]; first compound 0.001 µM): 1.08 | relative viability ([4]; first compound 0.003162 µM): 0.977 | relative viability ([4]; first compound 0.01 µM): 1.01 | relative viability ([4]; first compound 0.03162 µM): 1.07 | relative viability ([4]; first compound 0.1 µM): 1.07

ABC-1
relative viability ([1]; first compound 0.003162 µM): 0.728 | relative viability ([1]; first compound 0.01 µM): 0.689 | relative viability ([1]; first compound 0.03162 µM): 0.832 | relative viability ([1]; first compound 0.1 µM): 0.775 | relative viability ([2]; first compound 0.001 µM): 1.28 | relative viability ([2]; first compound 0.003162 µM): 1.38 | relative viability ([2]; first compound 0.01 µM): 1.07 | relative viability ([2]; first compound 0.03162 µM): 1.13 | relative viability ([2]; first compound 0.1 µM): 0.9 | relative viability ([3]; first compound 0.001 µM): 1.11 | relative viability ([3]; first compound 0.003162 µM): 1.08 | relative viability ([3]; first compound 0.01 µM): 1.04 | relative viability ([3]; first compound 0.03162 µM): 1.24 | relative viability ([3]; first compound 0.1 µM): 1.04 | relative viability ([4]; first compound 0.001 µM): 1.22 | relative viability ([4]; first compound 0.003162 µM): 1.32 | relative viability ([4]; first compound 0.01 µM): 1.1 | relative viability ([4]; first compound 0.03162 µM): 1.06 | relative viability ([4]; first compound 0.1 µM): 0.912

BEN
relative viability ([1]; first compound 0.001 µM): 0.851 | relative viability ([1]; first compound 0.003162 µM): 0.685 | relative viability ([1]; first compound 0.01 µM): 0.844 | relative viability ([1]; first compound 0.03162 µM): 0.654 | relative viability ([1]; first compound 0.1 µM): 0.418 | relative viability ([2]; first compound 0.001 µM): 0.71 | relative viability ([2]; first compound 0.003162 µM): 0.815 | relative viability ([2]; first compound 0.01 µM): 0.889 | relative viability ([2]; first compound 0.03162 µM): 0.646 | relative viability ([2]; first compound 0.1 µM): 0.242 | relative viability ([3]; first compound 0.001 µM): 0.55 | relative viability ([3]; first compound 0.003162 µM): 0.541 | relative viability ([3]; first compound 0.01 µM): 0.55 | relative viability ([3]; first compound 0.03162 µM): 0.587 | relative viability ([3]; first compound 0.1 µM): 0.572 | relative viability ([4]; first compound 0.001 µM): 0.782 | relative viability ([4]; first compound 0.003162 µM): 0.881 | relative viability ([4]; first compound 0.01 µM): 0.861 | relative viability ([4]; first compound 0.03162 µM): 0.588 | relative viability ([4]; first compound 0.1 µM): 0.443

CAL-12T
relative viability ([1]; first compound 0.001 µM): 0.642 | relative viability ([1]; first compound 0.003162 µM): 0.688 | relative viability ([1]; first compound 0.01 µM): 0.584 | relative viability ([1]; first compound 0.03162 µM): 0.695 | relative viability ([1]; first compound 0.1 µM): 0.695 | relative viability ([2]; first compound 0.001 µM): 1.33 | relative viability ([2]; first compound 0.003162 µM): 1.21 | relative viability ([2]; first compound 0.01 µM): 1.08 | relative viability ([2]; first compound 0.03162 µM): 1.41 | relative viability ([2]; first compound 0.1 µM): 0.898 | relative viability ([3]; first compound 0.001 µM): 0.876 | relative viability ([3]; first compound 0.003162 µM): 0.897 | relative viability ([3]; first compound 0.01 µM): 0.746 | relative viability ([3]; first compound 0.03162 µM): 0.651 | relative viability ([3]; first compound 0.1 µM): 0.445 | relative viability ([4]; first compound 0.001 µM): 0.765 | relative viability ([4]; first compound 0.003162 µM): 0.609 | relative viability ([4]; first compound 0.03162 µM): 0.729 | relative viability ([4]; first compound 0.1 µM): 0.561

COR-L23
relative viability ([2]; first compound 0.001 µM): 1 | relative viability ([2]; first compound 0.003162 µM): 0.996 | relative viability ([2]; first compound 0.01 µM): 1.02 | relative viability ([2]; first compound 0.03162 µM): 0.904 | relative viability ([2]; first compound 0.1 µM): 0.353 | relative viability ([3]; first compound 0.001 µM): 0.602 | relative viability ([3]; first compound 0.003162 µM): 0.295 | relative viability ([3]; first compound 0.01 µM): 0.493 | relative viability ([3]; first compound 0.03162 µM): 0.301 | relative viability ([3]; first compound 0.1 µM): 0.106 | relative viability ([4]; first compound 0.001 µM): 0.924 | relative viability ([4]; first compound 0.003162 µM): 1.06 | relative viability ([4]; first compound 0.01 µM): 0.95 | relative viability ([4]; first compound 0.03162 µM): 1.01 | relative viability ([4]; first compound 0.1 µM): 0.379

COR-L 105
relative viability ([2]; first compound 0.001 µM): 1.07 | relative viability ([2]; first compound 0.003162 µM): 0.894 | relative viability ([2]; first compound 0.01 µM): 1.31 | relative viability ([2]; first compound 0.03162 µM): 1.09 | relative viability ([2]; first compound 0.1 µM): 0.846 | relative viability ([3]; first compound 0.001 µM): 1.04 | relative viability ([3]; first compound 0.003162 µM): 0.872 | relative viability ([3]; first compound 0.01 µM): 0.896 | relative viability ([3]; first compound 0.03162 µM): 0.774 | relative viability ([3]; first compound 0.1 µM): 0.719 | relative viability ([4]; first compound 0.001 µM): 0.438 | relative viability ([4]; first compound 0.003162 µM): 0.39 | relative viability ([4]; first compound 0.01 µM): 0.317 | relative viability ([4]; first compound 0.03162 µM): 0.374 | relative viability ([4]; first compound 0.1 µM): 0.285

Calu-6
relative viability ([2]; first compound 0.001 µM): 0.961 | relative viability ([2]; first compound 0.003162 µM): 0.95 | relative viability ([2]; first compound 0.01 µM): 0.925 | relative viability ([2]; first compound 0.03162 µM): 0.472 | relative viability ([2]; first compound 0.1 µM): 0.109 | relative viability ([4]; first compound 0.001 µM): 1.18 | relative viability ([4]; first compound 0.003162 µM): 1 | relative viability ([4]; first compound 0.01 µM): 1.05 | relative viability ([4]; first compound 0.03162 µM): 0.689 | relative viability ([4]; first compound 0.1 µM): 0.176

ChaGo-K-1
relative viability ([1]; first compound 0.001 µM): 0.869 | relative viability ([1]; first compound 0.003162 µM): 0.839 | relative viability ([1]; first compound 0.01 µM): 0.854 | relative viability ([1]; first compound 0.03162 µM): 0.874 | relative viability ([1]; first compound 0.1 µM): 0.885 | relative viability ([2]; first compound 0.001 µM): 0.999 | relative viability ([2]; first compound 0.003162 µM): 0.915 | relative viability ([2]; first compound 0.01 µM): 0.93 | relative viability ([2]; first compound 0.03162 µM): 0.881 | relative viability ([2]; first compound 0.1 µM): 0.786 | relative viability ([3]; first compound 0.001 µM): 0.725 | relative viability ([3]; first compound 0.003162 µM): 0.766 | relative viability ([3]; first compound 0.01 µM): 0.755 | relative viability ([3]; first compound 0.03162 µM): 0.726 | relative viability ([3]; first compound 0.1 µM): 0.746
